According to US20100190747A1, “Fused ring compound and use thereof” (priority 2009, published 2010):

Molecular target: T1, delta-5-desaturase (Rattus norvegicus, UniProt Q920R3)
T1 construct: the microsomal fraction of a rat river (10 μl), which had been diluted to 3 mg/ml; from tissue; host or cells: rat liver microsomal fraction
Assay: Inhibitory activity on delta-5-desaturase (rat liver microsomal fraction, 14C-eicosatrienoic acid, TLC)
Assay type: biochemical
Conditions: test compound at 10 μM, room temperature, 120 minutes
Method: An inhibitory activity of a test compound on delta-5-desaturase was measured according to the method described herein below. To a DMSO solution of the test compound which had been previously prepared, secondary dilution was carried out by using a buffer (300 mM NaH2PO4 [pH 7.4], 450 mM KCl, 30 mM NaF, 9 mM MgCl2, 4.5 mM glutathione [reduced form], 0.3% BSA [fatty acid free, SIGMA]). This diluent compound (10 μl) was added in a 96-well deep well block made of polypropylene, and then the microsomal fraction of a rat river (10 μl), which had been diluted to 3 mg/ml by using a microsome buffer (10 mM Tris-HCl [pH 7.4], 1 mM EDTA, and 250 mM sucrose), was added thereto. The enzyme reaction was initiated by adding 10 μl of 9 mM NADH, 9 mM ATP, 0.9 mM CoA and 10 μCi/ml (8E,11E,14E)-(1-^14C)eicosa-8,11,14-trienoic acid (PerkinElmer Inc.). The enzyme reaction was carried out at room temperature for 120 minutes, and then terminated by addition of 2.5 M NaOH (10 μl). Upon the completion of the reaction, the plate was covered with plate seal and incubated overnight in a dry heater of which temperature was set at 55° C. for saponification. Based on Bligh & Dyer method which had been described in a known document, Canadian Journal of Biochemistry and Physiology (Can. J. Biochem. Physiol.), Vol. 37, page 911, 1959), the solvent extraction of fatty acid was carried out by adding 200 μl of formic acid:methanol:chloroform (1:6:3), keeping the mixture as a single layer for a while, stirring the mixture to a sufficient level, and adding 120 μl of pure water to separate the mixture into two layers. 10 μl of the bottom chloroform layer was spotted on a reverse phase TLC plate (RP-18, 1154230001, Merck Japan, Ltd.) and then developed with acetonitrile:pure water:acetic acid (95:4.5:0.5). The TLC plate obtained after drying was transferred to an Imaging Plate (Fuji Photo Film Co., Ltd.) for more than 5 hours. Detection was carried out by using BAS-5000 (Fuji Photo Film Co., Ltd.). Numerization of thus-obtained image was carried out by using Multi Gauge Ver 2.3 (Fuji Photo Film Co., Ltd.) and an inhibitory ratio (%) of the test compound at 10 μM on delta-5-desaturase was obtained.

T1 sequence (Q920R3 whole entry): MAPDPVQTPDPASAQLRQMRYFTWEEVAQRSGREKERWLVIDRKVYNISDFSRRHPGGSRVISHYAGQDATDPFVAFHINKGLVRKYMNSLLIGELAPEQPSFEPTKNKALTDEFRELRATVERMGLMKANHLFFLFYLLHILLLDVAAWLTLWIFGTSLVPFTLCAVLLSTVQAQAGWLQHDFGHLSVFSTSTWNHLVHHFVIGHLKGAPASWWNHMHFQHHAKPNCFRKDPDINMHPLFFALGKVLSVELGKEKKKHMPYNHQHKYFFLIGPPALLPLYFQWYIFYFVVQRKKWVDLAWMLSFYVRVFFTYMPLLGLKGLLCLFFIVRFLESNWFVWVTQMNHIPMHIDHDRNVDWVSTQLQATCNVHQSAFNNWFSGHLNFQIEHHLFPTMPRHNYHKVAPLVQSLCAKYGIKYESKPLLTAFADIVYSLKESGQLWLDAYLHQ

| inhibition at 10 µM | Structure (SMILES) |
| --- | --- |
| 99% | CCOc1ccc(-n2c(SCCCC(=O)NCCC#N)nc3cc[nH]c3c2=O)cc1 [Example 60, N-(2-cyanoethyl)-4-{[3-(4-ethoxyphenyl)-4-oxo-4,5-dihydro-3H-pyrrolo[3,2-d]pyrimidin-2-yl]sulfanyl}butanamide] |
| 102% | CCOc1ccc(-n2c(SCCCS(=O)(=O)NCCC#N)nc3cc[nH]c3c2=O)cc1 [Example 62, N-(2-cyanoethyl)-3-{[3-(4-ethoxyphenyl)-4-oxo-4,5-dihydro-3H-pyrrolo[3,2-d]pyrimidin-2-yl]sulfanyl}propane-1-sulfonamide] |
| 98% | CCOc1ccc(-n2c(SCCCC(=O)NCC#N)nc3cc[nH]c3c2=O)cc1 [Example 63, N-(cyanomethyl)-4-{[3-(4-ethoxyphenyl)-4-oxo-4,5-dihydro-3H-pyrrolo[3,2-d]pyrimidin-2-yl]sulfanyl}butanamide] |
| 97% | CCOc1ccc(-n2c(SCCCCC(=O)NCCC#N)nc3cc[nH]c3c2=O)cc1 [Example 65, N-(2-cyanoethyl)-5-{[3-(4-ethoxyphenyl)-4-oxo-4,5-dihydro-3H-pyrrolo[3,2-d]pyrimidin-2-yl]sulfanyl}pentanamide] |
| 101% | CCOc1ccc(-n2c(SCCCC(=O)N(C)CCC#N)nc3cc[nH]c3c2=O)cc1 [Example 66, N-(2-cyanoethyl)-4-{[3-(4-ethoxyphenyl)-4-oxo-4,5-dihydro-3H-pyrrolo[3,2-d]pyrimidin-2-yl]sulfanyl}-N-methylbutanamide] |
| 96% | N#CCCNC(=O)CCCSc1nc2cc[nH]c2c(=O)n1-c1ccc(OCC(F)(F)F)cc1 [Example 67] |
| 101% | CCOCCSc1nc2cc[nH]c2c(=O)n1-c1ccc(OCC(F)(F)F)cc1 [Example 74, 2-[(2-Ethoxyethyl)sulfanyl]-3-[4-(2,2,2-trifluoroethoxy)phenyl]-3,5-dihydro-4H-pyrrolo[3,2-d]pyrimidin-4-one] |
| 99% | O=C(CCCSc1nc2cc[nH]c2c(=O)n1-c1ccc(OCC(F)(F)F)cc1)NCC(F)(F)F [Example 75, 4-({4-Oxo-3-[4-(2,2,2-trifluoroethoxy)phenyl]-4,5-dihydro-3H-pyrrolo[3,2-d]pyrimidin-2-yl}sulfanyl)-N-(2,2,2-trifluoroethyl)butanamide] |
| 99% | O=C(CCCSc1nc2cc[nH]c2c(=O)n1-c1ccc(OCC(F)(F)F)cc1)NC1CC1 [Example 76, N-cyclopropyl-4-({4-oxo-3-[4-(2,2,2-trifluoroethoxy)phenyl]-4,5-dihydro-3H-pyrrolo[3,2-d]pyrimidin-2-yl}sulfanyl)butanamide] |
| 100% | O=C(CCCSc1nc2cc[nH]c2c(=O)n1-c1ccc(OCC(F)(F)F)cc1)N1CCCCC1 [Example 77, 2-[(4-Oxo-4-piperidin-1-ylbutyl)sulfanyl]-3-[4-(2,2,2-trifluoroethoxy)phenyl]-3,5-dihydro-4H-pyrrolo[3,2-d]pyrimidin-4-one] |
| 101% | COCCOCCCSc1nc2cc[nH]c2c(=O)n1-c1ccc(OCC(F)(F)F)cc1 [Example 78, 2-{[3-(2-Methoxyethoxy)propyl]sulfanyl}-3-[4-(2,2,2-trifluoroethoxy)phenyl]-3,5-dihydro-4H-pyrrolo[3,2-d]pyrimidin-4-one] |
| 99% | CCOCCOCCSc1nc2cc[nH]c2c(=O)n1-c1ccc(OCC(F)(F)F)cc1 [Example 79, 2-{[2-(2-Ethoxyethoxy)ethyl]sulfanyl}-3-[4-(2,2,2-trifluoroethoxy)phenyl]-3,5-dihydro-4H-pyrrolo[3,2-d]pyrimidin-4-one] |
| 98% | CS(=O)(=O)CCCSc1nc2cc[nH]c2c(=O)n1-c1ccc(OCC(F)(F)F)cc1 [Example 80, 2-{[3-(Methylsulfonyl)propyl]sulfanyl}-3-[4-(2,2,2-trifluoroethoxy)phenyl]-3,5-dihydro-4H-pyrrolo[3,2-d]pyrimidin-4-one] |
| 97% | CCOCCCSc1nc2cc[nH]c2c(=O)n1-c1ccc(OCC(F)(F)F)cc1 [Example 81, 2-[(3-Ethoxypropyl)sulfanyl]-3-[4-(2,2,2-trifluoroethoxy)phenyl]-3,5-dihydro-4H-pyrrolo[3,2-d]pyrimidin-4-one] |
| 101% | N#CCCNC(=O)CCCSc1nc2cc[nH]c2c(=O)n1-c1ccc(OCC2CCC2)cc1 [Example 82, N-(2-cyanoethyl)-4-({3-[4-(cyclobutylmethoxy)phenyl]-4-oxo-4,5-dihydro-3H-pyrrolo[3,2-d]pyrimidin-2-yl}sulfanyl)butanamide] |
| 99% | CC(CCSc1nc2cc[nH]c2c(=O)n1-c1ccc(OCC(F)(F)F)cc1)C(=O)NCCC#N (stereo not shown) [Example 85, N-(2-cyanoethyl)-2-methyl-4-({4-oxo-3-[4-(2,2,2-trifluoroethoxy)phenyl]-4,5-dihydro-3H-pyrrolo[3,2-d]pyrimidin-2-yl)sulfanyl)butanamide] |
| 99% | N#CCCCSc1nc2cc[nH]c2c(=O)n1-c1ccc(OCC(F)(F)F)cc1 [Example 86, 4-({4-Oxo-3-[4-(2,2,2-trifluoroethoxy)phenyl]-4,5-dihydro-3H-pyrrolo[3,2-d]pyrimidin-2-yl}sulfanyl)butanenitrile] |
| 99% | N#CCCCCSc1nc2cc[nH]c2c(=O)n1-c1ccc(OCC(F)(F)F)cc1 [Example 87, 5-({4-Oxo-3-[4-(2,2,2-trifluoroethoxy)phenyl]-4,5-dihydro-3H-pyrrolo[3,2-d]pyrimidin-2-yl}sulfanyl)pentanenitrile] |
| 100% | N#CCCCCCSc1nc2cc[nH]c2c(=O)n1-c1ccc(OCC(F)(F)F)cc1 [Example 88, 6-({4-Oxo-3-[4-(2,2,2-trifluoroethoxy)phenyl]-4,5-dihydro-3H-pyrrolo[3,2-d]pyrimidin-2-yl}sulfanyl)hexanenitrile] |
| 99% | N#CCCNC(=O)CCCSc1nc2cc[nH]c2c(=O)n1-c1ccc(OCCC(F)(F)F)cc1 [Example 90, N-(2-cyanoethyl)-4-({4-oxo-3-[4-(3,3,3-trifluoropropoxy)phenyl]-4,5-dihydro-3H-pyrrolo[3,2-d]pyrimidin-2-yl}sulfanyl)butanamide] |
| 102% | N#CCCNC(=O)CCCSc1nc2cc[nH]c2c(=O)n1-c1ccc(OCC2CC2)cc1 [Example 92, N-(2-cyanoethyl)-4-({3-[4-(cyclopropylmethoxy)phenyl]-4-oxo-4,5-dihydro-3H-pyrrolo[3,2-d]pyrimidin-2-yl}sulfanyl)butanamide] |
| 101% | CC1(COc2ccc(-n3c(SCCCC(=O)NCCC#N)nc4cc[nH]c4c3=O)cc2)CC1 [Example 93, N-(2-cyanoethyl)-4-[(3-{4-[(1-methylcyclopropyl)methoxy]phenyl}-4-oxo-4,5-dihydro-3H-pyrrolo[3,2-d]pyrimidin-2-yl)sulfanyl]butanamide] |
| 100% | N#CCCNC(=O)CCCSc1nc2cc[nH]c2c(=O)n1-c1ccc(OCC2CC2(F)F)cc1 (stereo not shown) [Example 95, N-(2-cyanoethyl)-4-[(3-{4-[(2,2-difluorocyclopropyl)methoxy]phenyl}-4-oxo-4,5-dihydro-3H-pyrrolo[3,2-d]pyrimidin-2-yl)sulfanyl]butanamide] |
| 100% | O=C(CCCSc1nc2cc[nH]c2c(=O)n1-c1ccc(OCC(F)(F)F)cc1)N1CCC(O)C1 (stereo not shown) [Example 97] |
| 100% | O=C(CCCSc1nc2cc[nH]c2c(=O)n1-c1ccc(OCC(F)(F)F)cc1)N1CCC(O)CC1 [Example 98, 2-{[4-(4-Hydroxypiperidin-1-yl)-4-oxobutyl]sulfanyl}-3-[4-(2,2,2-trifluoroethoxy)phenyl]-3,5-dihydro-4H-pyrrolo[3,2-d]pyrimidin-4-one] |
| 94% | CC(C)(O)CNC(=O)CCCSc1nc2cc[nH]c2c(=O)n1-c1ccc(OCC(F)(F)F)cc1 [Example 99, N-(2-hydroxy-2-methylpropyl)-4-({4-oxo-3-[4-(2,2,2-trifluoroethoxy)phenyl]-4,5-dihydro-3H-pyrrolo[3,2-d]pyrimidin-2-yl}sulfanyl)butanamide] |
| 100% | CC(C)(CO)NC(=O)CCCSc1nc2cc[nH]c2c(=O)n1-c1ccc(OCC(F)(F)F)cc1 [Example 100, N-(2-hydroxy-1,1-dimethylethyl)-4-({4-oxo-3-[4-(2,2,2-trifluoroethoxy)phenyl]-4,5-dihydro-3H-pyrrolo[3,2-d]pyrimidin-2-yl}sulfanyl)butanamide] |

| Structure (SMILES) | inhibition at 10 µM |
| --- | --- |
| CCCCOc1ccc(-n2c(SCCCC(=O)NCCC#N)nc3cc[nH]c3c2=O)cc1 [Example 91, 4-{[3-(4-Butoxyphenyl)-4-oxo-4,5-dihydro-3H-pyrrolo[3,2-d]pyrimidin-2-yl]sulfanyl}-N-(2-cyanoethyl)butanamide] | 100% |
